# Assay results: patent US12433925B2, “Composition for photodynamic reaction containing extract of Ligularia fischeri as an effective ingredient, antimicrobial, antifungal and sterilization composition including the same, and sterilization method using the composition for photodynamic reaction” (KOREA INSTITUTE OF SCIENCE AND TECHNOLOGY, priority 2020, dated 2025)
# What was measured:
# [1] = system: Staphylococcus aureus KCTC 3881; experiment: Mouse splinted excisional wound model, wound closure by H&E histology (distance between epidermis tips); format: in vivo, BALB/c mouse; conditions: no red light
# Protocol: (§1) A 7-week-old male BALB/c mouse (BALB-cAnNCr1jOri, Orientbio, Seongnam, South Korea) was housed for a week in a sterile animal room (SPF, Specific pathogen free) with a controlled air temperature of 22±2° C., a humidity of 50±10%, and the cycle of 12 hours of light and 12 hours of dark. The mice were anesthetized through an avertin intraperitoneal injection, a 5 mm wound was made therein using a biopsy patch, and a central portion of silicone drilled to an outside diameter of 15 mm and an inside diameter of 5 mm was stuck to fit the wound. Then, in the case of the experimental group, 10 μL of a physiological buffer solution (PBS) containing 10^9 CFU/mL of Staphylococcus aureus KCTC 3881 (S.A. bacterium) was inoculated into the wound site, which was then clogged with Tegaderm, and the back of the mice was wrapped with a compression bandage so that the wound site was not in contact with the outside.
# (§2) Two days after the infection with Staphylococcus aureus, in the case of the group treated with Ligularia fischeri ethanol according to Preparation Example 1(1), the wound was treated with 10 μL of a Ligularia fischeri ethanol extract (20 μg/mL), and in the case of the red light treated group, the wound was treated with red light LED (wavelength: 660 nm, 120 W/m^2) for 15 minutes. […]
# A wound size measurement is a measurement of apparently appearing wound scab and requires the task of histologically confirming whether the wound has been closed by an epidermis actually newly created inside the scab. To this end, the distance between the wound epidermis was measured. […]
# Example 1(1)+red light), and the ampicillin-treated group (S.A.bacteria+Ampicillin) on Day 8 after the wound is infected with Staphylococcus aureus (S.A.bacteria). […] At this time, statistical significance between Control (PBS) and S. A. bacteria-treated group was expressed as ^##p<0.001. Statistical significance with S. A. bacteria-treated group-treated group was expressed as *p<0.05 or […]. […]
# [2] = system: Staphylococcus aureus KCTC 3881; experiment: Mouse splinted excisional wound model, wound size by caliper; format: in vivo, BALB/c mouse; conditions: no red light
# Protocol: as §1
# as §2, with “minutes. In addition, in the case of the Ligularia fischeri ethanol extract according to Preparation Example 1(1) and the red light-treated group, 10 μL of the Ligularia fischeri ethanol extract (20 μg/mL) was treated on the wound for 30 minutes and then red light (120 W/m^2) was treated for 15 minutes.” for “minutes.”
# The wound was treated in the same manner as above, even 4, 6, and 8 days after infection with Staphylococcus aureus, and the image of the wound site was obtained on Day 2, 4, 6, and 8 after infection with Staphylococcus aureus. The width and height of the wound site were measured using a caliper and the product obtained by multiplying the width with the height was used to calculate the wound size in mm^2. […]
structure (smiles),measurement,setting,value
"CC1(C)S[C@@H]2[C@H](NC(=O)[C@H](N)c3ccccc3)C(=O)N2[C@H]1C(=O)O [ampicillin, Ampicillin]","wound closure (epidermis formation, H&E)","[1]; Day 8, PBS (uninfected) wound",completely closed
same,distance between epithelial tips (wound maintained),"[1]; Day 8, infected wound",16.6%
same,histological wound size compared to the S.A. bacteria-treated group,"[1]; Day 8, infected wound",reduced
same,wound size compared to the group treated with S.A. bacteria,"[2]; Day 8, infected wound",no significant difference in wound size
same,"wound size, % of the initial wound size","[2]; Day 8, wound infected with S.A. bacteria, topical 10 μL",53.7%
same,"change in wound size, uninfected (PBS) wound",[2]; PBS (no S.A. infection),the change in wound size did not occur over time
